Measured values as given in PMC7934444, “A bifunctional enzyme belonging to cytochrome P450 family involved in the O-dealkylation and N-dealkoxymethylation toward chloroacetanilide herbicides in Rhodococcus sp. B2” (Microbial Cell Factories, 2021).

Biological target: T1, EthABDB2 (EthAB2 + EthBB2 + EthDB2) (Rhodococcus sp. B2, UniProt A0A8A6W4L4)
T1 construct: gene ethB; 43 kDa (EthA), 44 kDa (EthB), 10 kDa (EthD); mixed in vitro; EthB has ten residue differences from EthB of strain T3-1; with Ferredoxin reductase EthA; EthD protein (10 kDa; unknown function, acts as ferredoxin)
T1 sequence (A0A8A6W625 entry or part of it): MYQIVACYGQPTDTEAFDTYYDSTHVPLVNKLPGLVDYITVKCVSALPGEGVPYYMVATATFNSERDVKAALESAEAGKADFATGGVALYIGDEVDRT
T1 sequence (A0A8A6W4L4 entry or part of it): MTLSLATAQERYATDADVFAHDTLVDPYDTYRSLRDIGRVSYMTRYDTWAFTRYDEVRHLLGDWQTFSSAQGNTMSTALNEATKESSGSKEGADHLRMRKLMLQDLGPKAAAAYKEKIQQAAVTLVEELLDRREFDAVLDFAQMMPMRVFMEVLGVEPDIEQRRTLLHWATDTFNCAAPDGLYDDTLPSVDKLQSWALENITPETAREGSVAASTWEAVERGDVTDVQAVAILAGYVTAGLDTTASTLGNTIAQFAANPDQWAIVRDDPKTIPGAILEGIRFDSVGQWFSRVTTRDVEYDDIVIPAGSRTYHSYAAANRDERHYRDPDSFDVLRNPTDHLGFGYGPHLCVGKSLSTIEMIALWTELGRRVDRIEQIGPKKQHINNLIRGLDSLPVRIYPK
T1 sequence (A0A8A6W576 entry or part of it, further chain): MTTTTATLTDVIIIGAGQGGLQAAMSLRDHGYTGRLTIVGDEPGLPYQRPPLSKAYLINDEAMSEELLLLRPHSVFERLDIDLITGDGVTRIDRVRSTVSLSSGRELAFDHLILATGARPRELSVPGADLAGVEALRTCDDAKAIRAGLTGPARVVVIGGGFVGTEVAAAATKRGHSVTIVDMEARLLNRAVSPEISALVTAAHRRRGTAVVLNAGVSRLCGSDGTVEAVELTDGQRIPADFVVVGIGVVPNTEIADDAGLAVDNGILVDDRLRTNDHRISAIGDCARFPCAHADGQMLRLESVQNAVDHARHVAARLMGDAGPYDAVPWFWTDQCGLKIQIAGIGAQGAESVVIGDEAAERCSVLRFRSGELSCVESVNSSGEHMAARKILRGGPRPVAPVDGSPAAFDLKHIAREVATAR
Assay: reconstituted enzyme assay, HPLC substrate loss; GC-MS of product CMEPA
Assay type: biochemical
Conditions: 0.5 mM substrate; 1 mM NADH, 0.5 mM Fe2+, 1 mM MgCl2, 20 mM Tris-HCl pH 7.5, 30 °C; N-dealkoxymethylation

Compound: CCc1cccc(C)c1N(COC(C)C)C(=O)CCl [propisochlor]
- reconstituted enzyme assay, HPLC substrate loss; GC-MS of product CMEPA: EthABDB2 performed N-dealkoxymethylation to acetochlor, alachlor, propisochlor and butachlor, O-dealkylation to pretilachlor
